Results on seven compounds are retold here after US5140018A, “1,3,2-benzodithiazole-1-oxide compounds” (Abbott Laboratories, priority 1991, dated 1992).

The structures appear in SMILES notation. Converted amounts (≈) assume the structure as drawn. Like-named read-outs stand apart in the source and are kept apart here.

Common to all, as to assay type: cell-based
Assay [1] relates to Torulopsis glabrata ATCC 15545. Kind of assay: In vitro antifungal MIC, Torulopsis glabrata ATCC 15545. As for the experimental part:
(§1) The in vitro antifungal activity of the compounds of the present invention against a variety of fungiwas determined as follow: Test medium was prepared by dissolving first 5 g of dextrose and then 6.7 g of Bacto Yeast Nitrogen Base® (commercially available from Difco Laboratories) in 100 mL of distilled water. The solution was filter-sterilized and diluted 1:10 with 0.01M pH 8.0 phosphate buffer solution, and the final pH of the medium adjusted to about pH 7.0 when necessary with either 0.1N hydrochloric acid solution of 0.1N sodium hydroxide solution. […] These concentrated stock solutions were diluted to a concentration of 200 μg/mL (twice the highest concentration desired for testing) with the test medium. Amphotericin B, similarly prepared, was used as a reference antifungal agent.
(§2) The test organisms were then inoculated into test tubes containing approximately 3 to 10 mL of test medium and the test tubes incubated overnight at 37° C. A sample of each overnight culture was placed in a test tube and diluted using the test medium until a reading of 95% transmittance was obtained in a conventional UV/visible spectrophotometer set to 560 nm. The adjusted cultures were then diluted 1:50 with test medium. These diluted cultures served as the inocula for the assays which follow and were used within 15 minutes of preparation.
(§3) Next, 2-fold serial dilutions of each test compound in test medium were prepared in a 96-well microtiter plate using calibrated microdiluters attached to an automatic (hand-held) diluter (available from Dynatech Laboratories).
(§4) Using sterile calibrated droppers or a multi-point dispenser, the diluted inoculum suspension was added to each of the wells in the plate. When inoculation was complete, the microtiter tray was covered with a plastic plate sealer to minimize evaporation. After the plate had been sealed, a hole was made above each well with a sterile 26-gauge syringe needle in order to allow gas exchange. If plate sealers were not available, the microtiter trays were stacked in groups of five or less with an empty tray on top. The microtiter trays were then incubated in a humidified chamber at 35°-37° C. for 48 hours or until growth was visible in the growth control wells.
(§5) The minimum inhibitory concentration (MIC) was defined as the lowest concentration of test compound yielding no growth, a slight haze or sparsely isolated colonies on the inoculum spot as compared to the growth control containing no test compound.

Assay [2] has as its system Cryptococcus albidus ATCC 34140. Kind of assay: In vitro antifungal MIC, Cryptococcus albidus ATCC 34140. As for the experimental part:
as §1, §2, §3, §4, §5

For assay [3], the system named is Candida albicans ATCC 10231. As to the kind of experiment: In vitro antifungal MIC, Candida albicans ATCC 10231. As for the experimental part:
as §1, §2, §3, §4, §5

Assay [4] concerns Candida albicans 579A. Kind of assay: In vitro antifungal MIC, Candida albicans 579A. As to the method:
as §1, §2, §3, §4, §5

Assay [5] relates to Candida kefyr ATCC 28838. Kind of assay: In vitro antifungal MIC, Candida kefyr ATCC 28838. As to the method: as §1, §2, §3, §4, §5
Assay [6] has as its system Candida albicans ATCC 38247. Kind of assay: In vitro antifungal MIC, Candida albicans ATCC 38247. As for the experimental part:
as §1, §2, §3, §4, §5

The subject of assay [7] is Aspergillus niger ATCC 16404. As to the kind of experiment: In vitro antifungal MIC, Aspergillus niger ATCC 16404. As to the method:
as §1, §2, §3, §4, §5

The subject of assay [8] is Candida albicans ATCC 62376. As to the kind of experiment: In vitro antifungal MIC, Candida albicans ATCC 62376. As for the experimental part:
as §1, §2, §3, §4, §5

In assay [9] the test system is Candida tropicalis NRRL-Y-112. As to the kind of experiment: In vitro antifungal MIC, Candida tropicalis NRRL-Y-112. As for the experimental part:
as §1, §2, §3, §4, §5

The test system of assay [10] is Candida albicans CCH 442. Kind of assay: In vitro antifungal MIC, Candida albicans CCH 442. As for the experimental part:
as §1, §2, §3, §4, §5

The mark [11] stands for this setting: Nakaseomyces glabratus, ATCC15545, Torulopsis glabrata ATCC 15545, 35°-37° C., 48 hours, read-out: MIC.
The mark [12] stands for this setting: Naganishia albida, ATCC34140, Cryptococcus albidus ATCC 34140, 35°-37° C., 48 hours, read-out: MIC.
[13] abbreviates: ATCC10231, Candida albicans ATCC 10231, 35°-37° C., 48 hours, read-out: MIC.
Where [14] appears, read: Candida albicans 579A, 35°-37° C., 48 hours, read-out: MIC.
[15] abbreviates: Kluyveromyces marxianus, ATCC28838, Candida kefyr ATCC 28838, 35°-37° C., 48 hours, read-out: MIC.
Setting [16] is: ATCC38247, Candida albicans ATCC 38247, 35°-37° C., 48 hours, read-out: MIC.
Where [17] appears, read: ATCC16404, Aspergillus niger ATCC 16404, 35°-37° C., 48 hours, read-out: MIC.
Setting [18] is: ATCC62376, Candida albicans ATCC 62376, 35°-37° C., 48 hours, read-out: MIC.
Where [19] appears, read: NRRLY112, Candida tropicalis NRRL-Y-112, 35°-37° C., 48 hours, read-out: MIC.
The mark [20] stands for this setting: CCH442, Candida albicans CCH 442, 35°-37° C., 48 hours, read-out: MIC.

What is called MIC is the smallest concentration in the dilution series that meets the test's criterion for growth inhibition. For the compound `CC(C)(C)CCN1Sc2ccccc2[S+]1[O-]` (stereo not shown) [Example 15], the MIC in [1] (setting [11]) came to 1.56 µg/mL (≈ 6.11 µM); in assay [2] (setting [12]), 12.5 µg/mL (≈ 48.9 µM); in assay [3] (setting [13]), 1.56 µg/mL (≈ 6.11 µM); in assay [4] (setting [14]), 3.12 µg/mL (≈ 12.2 µM); in assay [5] (setting [15]) it was 0.78 µg/mL (≈ 3.05 µM); in assay [6] (setting [16]), 25 µg/mL (≈ 97.9 µM). Moreover, the MIC turned out to be 1.56 µg/mL (≈ 6.11 µM) in assay [7] (setting [17]), 1.56 µg/mL (≈ 6.11 µM) in assay [8] (setting [18]), 3.12 µg/mL (≈ 12.2 µM) in assay [9] (setting [19]) and 1.56 µg/mL (≈ 6.11 µM) in assay [10] (setting [20]).

In the case of `CC(C)(C)CC(C)(C)N1Sc2ccccc2[S+]1[O-]` (stereo not shown) [Example 16, 2-(1,1,3,3-tetramethylbutyl)-1,3,2-benzodithiazole-1-oxide], the minimum inhibitory concentration (MIC) in assay [1] (setting [11]) was 6.25 µg/mL (≈ 22 µM); in [2] (setting [12]), 6.25 µg/mL (≈ 22 µM); in assay [3] (setting [13]), 6.25 µg/mL (≈ 22 µM); in [4] (setting [14]) it was 3.12 µg/mL (≈ 11 µM); in assay [5] (setting [15]) it was 0.78 µg/mL (≈ 2.75 µM); in [6] (setting [16]), 1.56 µg/mL (≈ 5.5 µM). For the same compound, the MIC in assay [7] (setting [17]) turned out to be 3.12 µg/mL (≈ 11 µM); in assay [8] (setting [18]) it was 6.25 µg/mL (≈ 22 µM); in assay [9] (setting [19]) it was 12.5 µg/mL (≈ 44.1 µM); in assay [10] (setting [20]) it was 1.56 µg/mL (≈ 5.5 µM).

In the case of `[O-][S+]1c2ccccc2SN1CCO` (stereo not shown) [Example 18, 2-(2-hydroxyethyl)-1,3,2-benzodithiazole-1-oxide], the MIC amounted to 6.25 µg/mL (≈ 29 µM) in assay [1] (setting [11]); 1.56 µg/mL (≈ 7.25 µM) in assay [2] (setting [12]); 12.5 µg/mL (≈ 58.1 µM) in assay [3] (setting [13]); 12.5 µg/mL (≈ 58.1 µM) in [4] (setting [14]); 0.78 µg/mL (≈ 3.62 µM) in assay [5] (setting [15]); 1.56 µg/mL (≈ 7.25 µM) in assay [6] (setting [16]). In addition, the MIC in assay [7] (setting [17]) turned out to be 6.25 µg/mL (≈ 29 µM); in [8] (setting [18]), 25 µg/mL (≈ 116 µM); in assay [9] (setting [19]) it was 12.5 µg/mL (≈ 58.1 µM); in assay [10] (setting [20]) it was 12.5 µg/mL (≈ 58.1 µM).

For the compound `CS(=O)(=O)OCCN1Sc2ccccc2[S+]1[O-]` (stereo not shown) [Example 19, O-(2-(1,3,2-benzodithiazole-2-yl-1-oxide)ethyl)methanesulfonate], the MIC in assay [1] (setting [11]) worked out at 6.25 µg/mL (≈ 21.3 µM); in assay [2] (setting [12]) it was 12.5 µg/mL (≈ 42.6 µM); in assay [3] (setting [13]), 50 µg/mL (≈ 170 µM); in assay [4] (setting [14]), 50 µg/mL (≈ 170 µM); in assay [5] (setting [15]), 1.56 µg/mL (≈ 5.32 µM); in [6] (setting [16]), 100 µg/mL (≈ 341 µM). Also, the MIC stood at 12.5 µg/mL (≈ 42.6 µM) in [7] (setting [17]), 100 µg/mL (≈ 341 µM) in assay [8] (setting [18]), 25 µg/mL (≈ 85.2 µM) in [9] (setting [19]) and 100 µg/mL (≈ 341 µM) in [10] (setting [20]).

`CC[Si](CC)(CC)OCCN1Sc2ccccc2[S+]1[O-]` (stereo not shown) [Example 20, 2-(2-(triethylsilyloxy)ethyl)-1,3,2-benzodithiazole-1-oxide]: the MIC in [1] (Nakaseomyces glabratus, ATCC15545, 48 h) amounted to 25 µg/mL (≈ 75.9 µM); in [2] (Naganishia albida, ATCC34140, 48 h), 12.5 µg/mL (≈ 37.9 µM); in assay [3] (Candida albicans, ATCC10231, 48 h), 25 µg/mL (≈ 75.9 µM); in assay [4] (Candida albicans, 579A, 48 h) it was 25 µg/mL (≈ 75.9 µM); in assay [5] (Kluyveromyces marxianus, ATCC28838, 48 h), 1.56 µg/mL (≈ 4.73 µM); in assay [6] (Candida albicans, ATCC38247, 48 h), 3.12 µg/mL (≈ 9.47 µM). For the same compound, the MIC in assay [7] (Aspergillus niger, ATCC16404, 48 h) was 12.5 µg/mL (≈ 37.9 µM); in assay [8] (Candida albicans, ATCC62376, 48 h) it was 25 µg/mL (≈ 75.9 µM); in assay [9] (Candida tropicalis, NRRLY112, 48 h), 25 µg/mL (≈ 75.9 µM); in assay [10] (Candida albicans, CCH442, 48 h) it was 50 µg/mL (≈ 152 µM).

On to `CCOC(=O)CN1Sc2ccccc2[S+]1[O-]` (stereo not shown) [Example 21, ethyl 2-(1,3,2-benzodithiazole-2-yl-1-oxide)-acetate], for which the minimal inhibitory concentration (MIC) came out at 3.12 µg/mL (≈ 12.1 µM) in [1] (Torulopsis glabrata ATCC 15545, 35°-37° C., 48 hours); 12.5 µg/mL (≈ 48.6 µM) in assay [2] (Cryptococcus albidus ATCC 34140, 35°-37° C., 48 hours); 6.25 µg/mL (≈ 24.3 µM) in assay [3] (Candida albicans ATCC 10231, 35°-37° C., 48 hours); 6.25 µg/mL (≈ 24.3 µM) in assay [4] (Candida albicans 579A, 35°-37° C., 48 hours); 0.78 µg/mL (≈ 3.03 µM) in [5] (Candida kefyr ATCC 28838, 35°-37° C., 48 hours); 6.25 µg/mL (≈ 24.3 µM) in assay [6] (Candida albicans ATCC 38247, 35°-37° C., 48 hours). In addition, the MIC in assay [7] (Aspergillus niger ATCC 16404, 35°-37° C., 48 hours) was determined as 1.56 µg/mL (≈ 6.06 µM); in assay [8] (Candida albicans ATCC 62376, 35°-37° C., 48 hours), 6.25 µg/mL (≈ 24.3 µM); in [9] (Candida tropicalis NRRL-Y-112, 35°-37° C., 48 hours), 6.25 µg/mL (≈ 24.3 µM); in assay [10] (Candida albicans CCH 442, 35°-37° C., 48 hours), 6.25 µg/mL (≈ 24.3 µM).

In the case of `O=C(O)COCCN1Sc2ccccc2[S+]1[O-]` (stereo not shown) [Example 22, 2-(2-(1,3,2-benzodithiazole-2-yl-1-oxide)ethyloxy) acetic acid], the MIC came out at 100 µg/mL (≈ 366 µM) in assay [1] (setting [11]); 100 µg/mL (≈ 366 µM) in assay [2] (setting [12]); 100 µg/mL (≈ 366 µM) in assay [3] (setting [13]); 100 µg/mL (≈ 366 µM) in assay [4] (setting [14]); 3.12 µg/mL (≈ 11.4 µM) in assay [5] (setting [15]); 50 µg/mL (≈ 183 µM) in assay [6] (setting [16]). For the same compound, the MIC in assay [7] (setting [17]) was 25 µg/mL (≈ 91.5 µM); in assay [8] (setting [18]), 100 µg/mL (≈ 366 µM); in [9] (setting [19]), 100 µg/mL (≈ 366 µM); in [10] (setting [20]), 100 µg/mL (≈ 366 µM).
